The results in this text go back to patent US20090318446A1, “4-(1H-Indol-3-yl)-Pyrimidin-2-Ylamine Derivatives and Their Use in Therapy” (Cyclacel Limited, priority 2005, published 2009).

This assay has as its target T1, aurora-A (Homo sapiens, UniProt O14965).
T1 construct: purchased Upstate, Dundee, UK
T1 sequence (O14965 1-403): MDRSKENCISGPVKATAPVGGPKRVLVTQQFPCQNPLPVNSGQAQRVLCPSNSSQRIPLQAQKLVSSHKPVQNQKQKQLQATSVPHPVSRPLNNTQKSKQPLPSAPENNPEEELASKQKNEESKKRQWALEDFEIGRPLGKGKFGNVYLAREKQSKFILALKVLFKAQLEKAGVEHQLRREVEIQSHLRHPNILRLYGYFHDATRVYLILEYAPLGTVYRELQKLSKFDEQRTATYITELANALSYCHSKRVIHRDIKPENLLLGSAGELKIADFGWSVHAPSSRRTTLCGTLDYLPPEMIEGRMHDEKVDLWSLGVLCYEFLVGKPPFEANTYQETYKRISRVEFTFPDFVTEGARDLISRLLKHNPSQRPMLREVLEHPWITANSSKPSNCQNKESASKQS
Briefly: Aurora-A (human) kinase assay. The class given is biochemical. As to conditions: Table 3, values without asterisk; read-out: Kinase inhibition Aurora A. The method, then: This was achieved by measurement of incorporation of radioactive phosphate from ATP into Kemptide substrate (LRRASLG), upon phosphorylation by commercially obtained aurora-A (human, Upstate, Dundee, UK). Assays were performed using 96-well plates and appropriate assay buffers (20 mM Tris, 25 mM β-glycerophosphate, 5 mM EGTA, 1 mM DTT, 1 mM sodium vanadate, pH 7.5), into which were added 2-5 ng of active enzyme with 500 μM substrate (Kemptide). The reactions were initiated by addition of MgATP mix (15 mM MgCl2+100 μM ATP with 15-25 kBq per well of [γ-^32P]-ATP) and mixtures incubated for 30 min at 30° C. Reactions were stopped by addition of an equal volume of 75 mM aq orthophosphoric acid, followed by filtration through p81 filterplates (Whatman Polyfiltronics, Kent, UK). After washing 4 times with 75 mM aq orthophosphoric acid, plates were dried, scintillant added and incorporated radioactivity measured in a scintillation counter (TopCount, Packard Instruments, Pangbourne, Berks, UK). Compounds for kinase assay were made up as 10 mM stocks in DMSO and diluted into 10% DMSO in assay buffer. Data was analysed using curve-fitting software (XLfit version 4.0.2, IDBS, Guildford, Surrey, UK) to determine IC50 values (concentration of test compound which inhibits kinase activity by 50%).

As to `C[C@H]1CN(c2ccc(Nc3nccc(-c4c[nH]c5ccccc45)n3)cc2)C[C@H](C)O1` [Compound 30, 4-(1H-indol-3-yl)-N-[(2S,6S)-2,6-dimethylmorpholin-4-ylphenyl]pyrimidin-2-amine], the IC50 amounted to 1.25 µM.
With `C[C@@H]1CN(c2ccc(Nc3nccc(-c4c[nH]c5ccccc45)n3)cc2)C[C@H](C)O1` [Compound 29, 4-(1H-indol-3-yl)-N-[(2R,6S)-2,6-dimethylmorpholin-4-ylphenyl]pyrimidin-2-amine] the figure was 0.386 µM; with `CC(=O)N1CCN(c2ccc(Nc3nccc(-c4cn(C)c5ccccc45)n3)cc2)CC1` [Compound 16, 4-(1-methyl-1H-indol-3-yl)-N-(4-acetylpiperazine-1-ylphenyl)pyrimidin-2-amine], 0.235 µM; with `COc1cc(Nc2nccc(-c3c[nH]c4ccccc34)n2)cc(OC)c1` [Compound 14, N-(3,5-dimethoxyphenyl)-4-(1H-indol-3-yl)pyrimidin-2-amine], 0.563 µM.
With `c1ccc2c(-c3ccnc(Nc4ccc5c(c4)OCO5)n3)c[nH]c2c1` [Compound 17, N-1,3-benzodioxol-5-yl-4-(1H-indol-3-yl)pyrimidin-2-amine] the figure was 0.742 µM; with `Cn1cc(-c2ccnc(Nc3ccc(N4CCOCC4)cc3)n2)c2ccccc21` [Compound 15, 4-(1-methyl-1H-indol-3-yl)-N-(4-morpholin-4-ylphenyl)pyrimidin-2-amine], 0.37 µM; with `CN1CCN(c2ccc(Nc3nccc(-c4c[nH]c5ccccc45)n3)cc2)CC1` [Compound 20, 4-(1H-indol-3-yl)-N-(4-methylpiperazin-1-ylphenyl)pyrimidin-2-amine], 0.434 µM.
In the case of `CC(=O)N1CCN(c2ccc(Nc3nccc(-c4c[nH]c5c(Cl)cccc45)n3)cc2)CC1` [Compound 25], the IC50 came to 0.559 µM.
With `O=C(C1CC1)n1cc(-c2ccnc(Nc3ccc(N4CCOCC4)cc3)n2)c2ccccc21` [Compound 18, 4-[1-(cyclopropylcarbonyl)-1H-indol-3-yl]-N-(4-morpholin-4-ylphenyl)pyrimidin-2-amine], the IC50 came out at 3.36 µM.
With `CC1CC(C)CN(c2ccc(Nc3nccc(-c4c[nH]c5ccccc45)n3)cc2)C1` (centres unmarked) [Compound 31, 4-(1H-indol-3-yl)-N-(3,5-dimethylpiperidin-1-ylphenyl)pyrimidin-2-amine] the figure was 4.51 µM; with `CC(=O)n1cc(-c2ccnc(Nc3ccc(N4CCOCC4)cc3)n2)c2ccccc21` [Compound 19, 4-(1-acetyl-1H-indol-3-yl)-N-(4-morpholin-4-ylphenyl)pyrimidin-2-amine], 2.19 µM.
